# Data published in patent publication US20190256626A1, “SURFACTANTS AND METHODS FOR MAKING SAME” (REGENTS OF THE UNIVERSITY OF MINNESOTA, priority 2016, published 2019).
# Marks after values point to notes of the source that are not given here.
# Columns and labels:
# [1] = TGA of Dispersions A-J (oxaprozin or 5-methyl-5-phenylhydantoin) and pure drugs; type: physicochemical; conditions: pure drugs
# Method: (§1) Thermogravimetric analysis (TGA) of Dispersions A-J was performed using a Q500 instrument from TA Instruments. The decomposition temperature (Td) at 5% was recorded for each dispersion and Td,1% was recorded for the pure drugs. Td,5% was recorded for the dispersions due to the hydrophilic properties of the surfactants, which required removal of surface moisture before the materials began to decompose. Differential Scanning Calorimetry (DSC) experiments were performed on Dispersions A-J and pure oxaprozin and 5-methyl-5-phenylhydantoin using a Discovery Series instrument from TA Instruments. Each dispersion was heated twice to Td,5%. The pure compounds were heated twice to Td,1%. The heating rate in all experiments was 10° C./min. […] These values approached the Tg value of pure surfactants (135.76° C.) as the ratio of the molecular weight of the poly(N-isopropylacrylamide) hydrophilic segment in kDa/mol to (m+1) increased. Generally, the dispersions including oxaprozin yielded lower Tg values. Without being bound by theory, the lower Tg values might be attributable to the larger size of oxaprozin, which would further disrupt surfactant packing.
# [2] = DSC of Dispersions A-J (oxaprozin or 5-methyl-5-phenylhydantoin) and pure drugs; type: physicochemical; conditions: heating rate 10° C./min
# Method: as §1
Compound,"Td,1% [1]",First Heat Tg [2] [°C]
CC1(c2ccccc2)NC(=O)NC1=O (stereo not shown) [5-methyl-5-phenylhydantoin],188* ° C.,134
"O=C(O)CCc1nc(-c2ccccc2)c(-c2ccccc2)o1 [Oxaprozin, oxaprozin]",206* ° C.,21
